The source of these data is PubChem BioAssay (NCI).

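48-hour exposure; five concentrations; linearly interpolated endpoints. Definition used: TGI = concentration required for complete inhibition of growth.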

Test systems include SF-295 CNS; NCI-H522 lung; T-47D breast; CCRF-CEM leukemia; 786-0 renal; HOP-92 NSCLC; MOLT-4 leukemia; NCI-H23 lung; SW-620 colon; HT29 colon; SNB-19 CNS; NCI-H460 lung; BT-549 breast; UACC-257 melanoma; TK-10 renal; UACC-62 melanoma; SK-OV-3 ovarian; NCI-H226 lung; MALME-3M melanoma.
What all share (assay): NCI tumour cell line growth inhibition, 48 h

In the case of `c1cc(CSP234N5CCN2CCN3CCN4CC5)ccc1CSP123N4CCN1CCN2CCN3CC4`, the TGI in the assay with SF-295 CNS, in the assay on NCI-H522 lung, in the assay with T-47D breast, with CCRF-CEM leukemia, in the assay on 786-0 renal and in the assay with HOP-92 NSCLC was more than 100 µM in each case. The TGI in the assay with MOLT-4 leukemia, in the assay on NCI-H23 lung, in the assay with SW-620 colon, with HT29 colon, in the assay on SNB-19 CNS and with NCI-H460 lung was more than 100 µM each time. Besides, the TGI in the assay with BT-549 breast, in the assay with UACC-257 melanoma, with TK-10 renal and in the assay with UACC-62 melanoma was more than 100 µM each time.
Take `Cc1ccccc1NC(=O)C(=O)CC(=O)c1sc(Nc2ccccc2[N+](=O)[O-])nc1C`: the TGI in the assay on SF-295 CNS was found to be 66.7 µM; with NCI-H522 lung, 86.1 µM; in the assay on T-47D breast, 68.1 µM; with SK-OV-3 ovarian it was 58.7 µM; with 786-0 renal it was 48.3 µM; in the assay with HOP-92 NSCLC, 59.6 µM. The TGI in the assay with MOLT-4 leukemia, in the assay on NCI-H226 lung, in the assay on NCI-H23 lung, with SW-620 colon, in the assay on HT29 colon and in the assay on SNB-19 CNS was more than 100 µM in each case. Further, the TGI was more than 100 µM in the assay on NCI-H460 lung; 79 µM in the assay on BT-549 breast; more than 100 µM in the assay with UACC-257 melanoma; 81.5 µM in the assay with TK-10 renal; 48 µM with UACC-62 melanoma.
Consider `CC(=O)O[C@@H]1[C@H]2[C@@H](OC(=O)c3ccccc3)[C@@H](C)C[C@]2(O)[C@H](OC(C)=O)[C@@]2(C)[C@@H]3CC(C)(C)C(=O)[C@]3(OC(C)=O)C[C@@]12C`, for which the TGI with SF-295 CNS, in the assay with NCI-H522 lung, with T-47D breast, in the assay with CCRF-CEM leukemia, with SK-OV-3 ovarian and in the assay on 786-0 renal was more than 25 µM in each case. Moreover, the TGI in the assay with HOP-92 NSCLC, with MOLT-4 leukemia, in the assay with NCI-H226 lung, in the assay on NCI-H23 lung, in the assay on SW-620 colon and with SNB-19 CNS was more than 25 µM in each case. The TGI with NCI-H460 lung, in the assay with BT-549 breast, in the assay on UACC-257 melanoma, with TK-10 renal and in the assay on UACC-62 melanoma was more than 25 µM each time.
For the molecule `Cc1cc(C)nc(NC(=S)Nc2ccccc2Cl)c1`, the TGI in the assay with SF-295 CNS, in the assay on NCI-H522 lung, in the assay on T-47D breast, with CCRF-CEM leukemia, in the assay with SK-OV-3 ovarian and in the assay on 786-0 renal was more than 100 µM throughout. Moreover, the TGI in the assay with MOLT-4 leukemia, in the assay with NCI-H226 lung, with MALME-3M melanoma, in the assay with SW-620 colon, with HT29 colon and in the assay with SNB-19 CNS was more than 100 µM each time. The TGI in the assay on NCI-H460 lung, in the assay on BT-549 breast, in the assay with UACC-257 melanoma, in the assay on TK-10 renal and in the assay on UACC-62 melanoma was more than 100 µM each time.
As for `CCO[C@@H]1CCC(S(=O)c2ccc(C)cc2)=CO1` (stereo partly drawn), the TGI with SF-295 CNS, with NCI-H522 lung, in the assay with T-47D breast, in the assay with 786-0 renal, in the assay on MOLT-4 leukemia and in the assay with NCI-H226 lung was more than 100 µM each time. Also, the TGI with MALME-3M melanoma, with NCI-H23 lung, in the assay with SW-620 colon, in the assay with HT29 colon, with SNB-19 CNS and in the assay on NCI-H460 lung was more than 100 µM each time. Besides, the TGI in the assay with BT-549 breast, in the assay with UACC-257 melanoma, with TK-10 renal and in the assay on UACC-62 melanoma was more than 100 µM throughout.
For `CCCCn1cnnc1NS(=O)(=O)c1cc(C)c(Cl)cc1SCC(=O)O`, the TGI in the assay on SF-295 CNS, in the assay on NCI-H522 lung, in the assay with T-47D breast, with CCRF-CEM leukemia, with SK-OV-3 ovarian and in the assay on 786-0 renal was more than 10 µM throughout. Further, the TGI in the assay with MOLT-4 leukemia, in the assay on NCI-H226 lung, in the assay with MALME-3M melanoma, in the assay with NCI-H23 lung, in the assay with SW-620 colon and in the assay on HT29 colon was more than 10 µM each time. For the same molecule, the TGI in the assay on SNB-19 CNS, with NCI-H460 lung, with BT-549 breast, in the assay with UACC-257 melanoma, in the assay with TK-10 renal and with UACC-62 melanoma was more than 10 µM each time.
Consider `C/C(=N\NC(=S)NC1CCCC1)c1ccccn1`, for which the TGI in the assay on SF-295 CNS is more than 43.6 µM; in the assay on NCI-H522 lung, 42.4 µM; in the assay on T-47D breast, more than 23.9 µM; with SK-OV-3 ovarian it was more than 100 µM; in the assay with 786-0 renal it was more than 100 µM; in the assay on NCI-H226 lung, 15 µM. Also, the TGI in the assay with MALME-3M melanoma was more than 28.6 µM; in the assay with NCI-H23 lung, more than 100 µM; in the assay on SW-620 colon, more than 100 µM; in the assay with HT29 colon, more than 100 µM; in the assay with SNB-19 CNS, more than 100 µM; in the assay on NCI-H460 lung, more than 19.9 µM. The TGI with BT-549 breast was 63.9 µM; in the assay with TK-10 renal it was more than 100 µM; in the assay with UACC-62 melanoma, 7.8 µM.
Take `O=C1NC(=S)NC(=O)C1C(c1ccc([N+](=O)[O-])cc1)C1C(=O)NC(=S)NC1=O`: the TGI in the assay with SF-295 CNS, with NCI-H522 lung, in the assay with T-47D breast, in the assay on CCRF-CEM leukemia, in the assay on 786-0 renal and with HOP-92 NSCLC was more than 100 µM in each case. Also, the TGI in the assay with MOLT-4 leukemia, in the assay on NCI-H226 lung, in the assay with NCI-H23 lung, in the assay on SW-620 colon, with HT29 colon and in the assay with SNB-19 CNS was more than 100 µM throughout. Also, the TGI with NCI-H460 lung, in the assay with BT-549 breast, in the assay on UACC-257 melanoma, in the assay with TK-10 renal and in the assay on UACC-62 melanoma was more than 100 µM in each case.
On to `CC1(C)C2CCC(N)(C2)C1N` (stereo not drawn), for which the TGI in the assay on SF-295 CNS, with T-47D breast, in the assay with CCRF-CEM leukemia, in the assay on SK-OV-3 ovarian, with 786-0 renal and with HOP-92 NSCLC was more than 100 µM each time. The TGI in the assay with MOLT-4 leukemia, in the assay with NCI-H226 lung, with NCI-H23 lung, in the assay on SW-620 colon, in the assay with SNB-19 CNS and in the assay on NCI-H460 lung was more than 100 µM each time. In addition, the TGI in the assay with BT-549 breast, with UACC-257 melanoma, in the assay on TK-10 renal and in the assay with UACC-62 melanoma was more than 100 µM in each case.
For `O=C1C=CC(=O)c2c(NCC3CC3)ccc(NCC3CC3)c21`, the TGI is 79.8 µM in the assay with SF-295 CNS; 15.9 µM in the assay with NCI-H522 lung; 65.6 µM in the assay with T-47D breast; more than 100 µM in the assay on 786-0 renal; 44.9 µM with MOLT-4 leukemia; 49.2 µM with MALME-3M melanoma. Further, the TGI in the assay with NCI-H23 lung was 89.4 µM; in the assay with SW-620 colon, more than 100 µM; in the assay with HT29 colon it was 88.4 µM; with SNB-19 CNS, more than 100 µM; in the assay on NCI-H460 lung, more than 100 µM; in the assay with BT-549 breast, more than 100 µM. Further, the TGI with UACC-257 melanoma was 61.8 µM; in the assay on TK-10 renal it was more than 100 µM; with UACC-62 melanoma, 65.3 µM.
For `O=C(Cn1cc(F)c(=O)[nH]c1=O)C12CC3CC(CC(C3)C1)C2`, the TGI in the assay with SF-295 CNS, with NCI-H522 lung, in the assay on T-47D breast, with CCRF-CEM leukemia, with SK-OV-3 ovarian and in the assay on 786-0 renal was more than 100 µM each time. Moreover, the TGI in the assay on MOLT-4 leukemia, with MALME-3M melanoma, in the assay on NCI-H23 lung, in the assay on SW-620 colon, with HT29 colon and in the assay on SNB-19 CNS was more than 100 µM in each case. For the same molecule, the TGI in the assay on NCI-H460 lung, in the assay on BT-549 breast, in the assay with UACC-257 melanoma, in the assay on TK-10 renal and with UACC-62 melanoma was more than 100 µM in each case.
For `C=C(C(=O)O)C1CCC(CC/C=C(\C)CC/C=C(\C)CCC=C(C)C)CO1` (stereo not drawn), the TGI with SF-295 CNS is 42.8 µM; with NCI-H522 lung, 48.6 µM; in the assay on T-47D breast, more than 100 µM; in the assay with CCRF-CEM leukemia, more than 100 µM; with SK-OV-3 ovarian, more than 100 µM; in the assay with 786-0 renal, 28.1 µM. In addition, the TGI in the assay on NCI-H226 lung stood at 13.1 µM; in the assay with MALME-3M melanoma it was 63 µM; in the assay with NCI-H23 lung, 40.5 µM; with SW-620 colon it was 33.4 µM; with HT29 colon, 29.3 µM; in the assay with SNB-19 CNS it was 29.1 µM. Moreover, the TGI with BT-549 breast is 61.8 µM; in the assay with UACC-257 melanoma it was 52.9 µM; with TK-10 renal, 81.8 µM; with UACC-62 melanoma, more than 100 µM.
Turning to `N#CCCSC1SC(=C2SC3=C(SCCS3)S2)SC1SCCC#N` (stereo not drawn), the TGI in the assay with SF-295 CNS, with NCI-H522 lung, with T-47D breast, in the assay with CCRF-CEM leukemia, in the assay on 786-0 renal and in the assay on HOP-92 NSCLC was more than 100 µM each time. The TGI in the assay on MOLT-4 leukemia, in the assay with NCI-H23 lung, in the assay on SW-620 colon, with HT29 colon, in the assay with SNB-19 CNS and in the assay with NCI-H460 lung was more than 100 µM in each case. Further, the TGI in the assay on BT-549 breast, in the assay on UACC-257 melanoma, in the assay on TK-10 renal and in the assay on UACC-62 melanoma was more than 100 µM throughout.
